Test results taken from patent publication EP1570862A1, “Highly soluble binary cyclodextrin inclusion complexes” (priority 2004, dated 2005).
Values after ≈ are worked out from the molar mass of the structure shown.

Assay: physchem
Settings: water
Experimental: The samples were mechanically shaken in a thermostatic bath shaker (~ 200 rpm) to attain thermal equilibrium, an aliquot was centrifuged (when necessary) and filtered using a 0.45µm filter (cellulose acetate or cellulose nitrate, Advantec MFS Inc., Duplin, USA).
The samples were shaken for different time intervals.

solubility thermodynamic: 115 mM (≈ 131 mg/mL)
SMILES: OC[C@H]1O[C@@H]2O[C@H]3[C@H](O)[C@@H](O)[C@@H](O[C@H]4[C@H](O)[C@@H](O)[C@@H](O[C@H]5[C@H](O)[C@@H](O)[C@@H](O[C@H]6[C@H](O)[C@@H](O)[C@@H](O[C@H]7[C@H](O)[C@@H](O)[C@@H](O[C@H]8[C@H](O)[C@@H](O)[C@@H](O[C@H]1[C@H](O)[C@H]2O)O[C@@H]8CO)O[C@@H]7CO)O[C@@H]6CO)O[C@@H]5CO)O[C@@H]4CO)O[C@@H]3CO [β-cyclodextrin]
